Test results reported in patent publication US9657015B2, “Substituted bicyclic dihydropyrimidinones and their use as inhibitors of neutrophil elastase activity” (Boehringer Ingelheim International GmbH, priority 2014, dated 2017).
Values after ≈ are worked out from the molar mass of the structure shown.

Columns and labels:
[1] = molecular target: neutrophil elastase in human plasma (Homo sapiens (Human), UniProt P08246); assay: Neutrophil elastase inhibitory activity in human plasma; assay type: biochemical; details: human plasma assay (zymosan-stimulated blood plasma), substrate 250 μM, pH 7.5
neutrophil elastase in human plasma, sequence (P08246 30-247): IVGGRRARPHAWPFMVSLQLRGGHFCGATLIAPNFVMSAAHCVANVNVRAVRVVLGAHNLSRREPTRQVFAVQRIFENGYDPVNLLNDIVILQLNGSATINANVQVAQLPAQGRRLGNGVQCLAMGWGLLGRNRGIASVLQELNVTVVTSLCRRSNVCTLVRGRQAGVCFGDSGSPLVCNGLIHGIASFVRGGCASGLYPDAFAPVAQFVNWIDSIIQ
Experimental: Assay for the Determination of Neutrophil Elastase Inhibitory Activity in Human Plasma
Citrated blood from human healthy donors is mixed with zymosan suspension and incubated at room temperature. This leads to the stimulation of neutrophils and the release of neutrophil elastase into the plasma. The stimulated blood is centrifuged to generate the neutrophil elastase enriched plasma.
Preparation of Zymosan Working Solution:
Various concentrations of the neutrophil elastase inhibitor are incubated with plasma. […] A dose response curve is generated to calculate the EC50 of the inhibitor.

[2] = Metabolic stability with human liver microsomes; assay type: in vitro ADME; details: pH 7.6; pooled human liver microsomes, 37° C., 1 μM test compound, 1 mg/ml microsomal protein, NADPH; read-out: t1/2 INVITRO
[3] = Drug transport across human Caco-2 cells; assay type: in vitro ADME; details: human, Caco-2 monolayers, pH 7.2, 37° C.; for Papp A→B at 10 µM: apical-to-basal, read-out: PEAB; for Papp B→A at 10 µM: basal-to-apical, read-out: PEBA
Source text: Assay for Determination of Drug Transport Across Human Caco-2 Cells
The assay provides information on the potential of a compound to pass the cell membrane, on the extent of oral absorption as well as on whether the compound is actively transported by uptake and/or efflux transporters. For the measurement of permeability across polarized, confluent human cancer colon carcinoma cells 2 (Caco-2) cell monolayers grown on permeable filter supports are used as the in vitro absorption model.
Apparent permeability coefficients (PE) of the compounds across the Caco-2 monolayers are measured (pH 7.2, 37° C.) in apical-to-basal (AB) (absorptive) and basal-to-apical (BA) (secretory) transport direction. AB permeability (PEAB) represents drug absorption from the intestine into the blood and BA permeability (PEBA) drug secretion from the blood back into the intestine via both passive permeability as well as active transport mechanisms mediated by efflux and uptake transporters that are expressed on the Caco-2 cells. The compounds are assigned to permeability/absorption classes by comparison of the AB permeabilities with the AB permeabilities of reference compounds with known in vitro permeability and oral absorption in the human. Identical or similar permeabilities in both transport directions indicate passive permeation, vectorial permeability points to additional active transport mechanisms. […] Active transport is concentration-dependently saturable.
Caco-2 cells (1-2*10^5 cells/cm^2 area) are seeded on filter inserts (Costar transwell polycarbonate or PET filters, 0.4 μm pore size) and cultured (DMEM) for 10 to 25 days. Compounds are dissolved in appropriate solvent (like DMSO, 1-20 mM stock solutions). Stock solutions are diluted with HTP-4 buffer (128.13 mM NaCl, 5.36 mM KCl, 1 mM MgSO4, 1.8 mM CaCl2, 4.17 mM NaHCO3, 1.19 mM Na2HPO4×7H2O, 0.41 mM NaH2PO4×H2O, 15 mM HEPES, 20 mM glucose, pH 7.2) to prepare the transport solutions (typically 10 μM compound, final DMSO<=0.5%). The transport solution (TL) is applied to the apical or basolateral donor side for measuring A-B or B-A permeability (3 filter replicates), respectively. The receiver side contains HTP-4 buffer supplemented with 2% BSA. Samples are collected at the start and end of experiment from the donor and at various time intervals for up to 2 hours also from the receiver side for concentration measurement by LC-MS/MS or scintillation counting. Sampled receiver volumes are replaced with fresh receiver solution.
The apparent permeability coefficients (PEAB and PEBA) of selected compounds in the Caco-2 drug transport assay described above are listed in Table 9.

[4] = Aqueous solubility (High Throughput Method); assay type: physicochemical; details: McIlvaine buffer pH 6.8 with 2.5% DMSO, aqueous buffer, kinetic from dmso stock; McIlvaine buffer pH 6.8, 2.5% DMSO, 24 h shaking
Experimental: Assay for Determination of Aqueous Solubility (“High Throughput Method”)
Starting from a 10 mM DMSO stock solution, aliquots are diluted with acetonitrile/water (1/1) and McIlvaine buffer pH 6.8, respectively. After 24 h of shaking, the solutions or suspensions are filtered and analyzed by LC-UV. The amount dissolved in buffer is compared to the amount dissolved in the acetonitrile/water (1/1) solution. Solubility is measured from 0.001 to 0.125 mg/ml at a DMSO concentration of 2.5%. If more than 90% of the compound is dissolved in buffer, the value is marked with “>”.

[5] = molecular target: Human neutrophil elastase (Homo sapiens (Human), UniProt P08246); assay: Human Neutrophil Elastase Assay; assay type: biochemical; details: substrate MeOSuc-Ala-Ala-Pro-Val-AMC 250 μM, pH 7.5, room temperature
Human neutrophil elastase, sequence (P08246 30-247): as above

## N#Cc1ccc([C@H]2NC(=O)N(c3cccc(C(F)F)c3)C3=C2C(=O)NCC3)cc1 [Example 2A, (R)-4-(1-(3-(Difluoromethyl)phenyl)-2,5-dioxo-1,2,3,4,5,6,7,8-octahydropyrido[4,3-d]-pyrimidin-4-yl)benzonitrile]
[1]
  IC50: 5.4 nM
[2]
  half-life at 1 μM: > 130 min
[3]
  Papp A→B at 10 µM: 4.7 ×10⁻⁶ cm/s
  Papp B→A at 10 µM: 31 ×10⁻⁶ cm/s
[4]
  solubility at 24 h: > 92 µg/mL
[5]
  IC50: 3.2 nM

## CN1CCC2=C(C1=O)[C@@H](c1ccc(C#N)cc1)NC(=O)N2c1cccc(C(F)(F)F)c1 [Example 4A, (R)-4-(6-Methyl-2,5-dioxo-1-(3-(trifluoromethyl)phenyl)-1,2,3,4,5,6,7,8-octahydropyrido[4,3-d]pyrimidin-4-yl)benzonitrile]
[1]
  IC50: 2.7 nM
[2]
  half-life at 1 μM: > 130 min
[3]
  Papp A→B at 10 µM: 17 ×10⁻⁶ cm/s
  Papp B→A at 10 µM: 34 ×10⁻⁶ cm/s
[4]
  solubility at 24 h: > 89 µg/mL
[5]
  IC50: 1.3 nM

## CN1C(=O)N(c2cccc(C(F)(F)F)c2)C2=C(C(=O)NCC2)[C@H]1c1ccc(C#N)cc1 [Example 6, (R)-4-(3-Methyl-2,5-dioxo-1-(3-(trifluoromethyl)phenyl)-1,2,3,4,5,6,7,8-octahydropyrido[4,3-d]pyrimidin-4-yl)benzonitrile]
[1]
  IC50: 1 nM
[2]
  half-life at 1 μM: > 130 min
[3]
  Papp A→B at 10 µM: 37 ×10⁻⁶ cm/s
  Papp B→A at 10 µM: 80 ×10⁻⁶ cm/s
[4]
  solubility at 24 h: > 88 µg/mL
[5]
  IC50: < 1 nM

## CNC(=O)CN1C(=O)N(c2cccc(C(F)(F)F)c2)C2=C(C(=O)N(C)CC2)C1c1ccc(C#N)cc1 (centres unmarked) [Example 15, 2-(4-(4-Cyanophenyl)-6-methyl-2,5-dioxo-1-(3-(trifluoromethyl)phenyl)-1,2,5,6,7,8-hexahydropyrido[4,3-d]pyrimidin-3(4H)-yl)-N-methylacetamide]
[1]
  IC50: 7.8 nM
[5]
  IC50: 3.2 nM

## CN(C)C(=O)CN1C(=O)N(c2cccc(C(F)(F)F)c2)C2=C(C(=O)N(C)CC2)C1c1ccc(C#N)cc1 (centres unmarked) [Example 15.1]
[1]
  IC50: 2.6 nM
[5]
  IC50: < 1 nM

## CNC(=O)N1C(=O)N(c2cccc(C(F)(F)F)c2)C2=C(C(=O)NCC2)C1c1ccc(C#N)cc1 (centres unmarked) [Example 16, 4-(4-Cyanophenyl)-N-methyl-2,5-dioxo-1-(3-(trifluoromethyl)phenyl)-1,2,5,6,7,8-hexahydropyrido[4,3-d]pyrimidine-3(4H)-carboxamide]
[1]
  IC50: 2.4 nM
[5]
  IC50: < 1 nM

## N#Cc1ccc(C2C3=C(CCNC3=O)N(c3cccc(C(F)(F)F)c3)C(=O)N2C(=O)NCCO)cc1 (centres unmarked) [Example 17, 4-(4-Cyanophenyl)-N-(2-hydroxyethyl)-2,5-dioxo-1-[3-(trifluoromethyl)phenyl]-1H,2H,3H,4H,5H,6H,7H,8H-pyrido[4,3-d]pyrimidine-3-carboxamide]
[1]
  IC50: < 1 nM
[5]
  IC50: < 1 nM

## N#Cc1ccc(C2NC(=O)N(c3cccc(C(F)(F)F)c3)C3=C2C(=O)N(C(=O)NCCO)CC3)cc1 (centres unmarked) [Example 18, 4-(4-Cyanophenyl)-N-(2-hydroxyethyl)-2,5-dioxo-1-[3-(trifluoromethyl)phenyl]-1H,2H,3H,4H,5H,6H,7H,8H-pyrido[4,3-d]pyrimidine-6-carboxamide]
[1]
  IC50: 6.7 nM
[5]
  IC50: 3.8 nM

## CCNC(=O)N1CCC2=C(C1=O)C(c1ccc(C#N)cc1)NC(=O)N2c1cccc(C(F)(F)F)c1 (centres unmarked) [Example 19, 4-(4-Cyanophenyl)-N-ethyl-2,5-dioxo-1-[3-(trifluoromethyl)phenyl]-1H,2H,3H,4H,5H,6H,7H,8H-pyrido[4,3-d]pyrimidine-6-carboxamide]
[1]
  IC50: 18 nM
[5]
  IC50: 4.9 nM

## N#Cc1ccc(C2NC(=O)N(c3cccc(C(F)(F)F)c3)C3=C2C(=O)N(C(=O)NCCCO)CC3)cc1 (centres unmarked) [Example 20, 4-(4-Cyanophenyl)-N-(3-hydroxypropyl)-2,5-dioxo-1-[3-(trifluoromethyl)phenyl]-1H,2H,3H,4H,5H,6H,7H,8H-pyrido[4,3-d]pyrimidine-6-carboxamide]
[1]
  IC50: 6.9 nM
[5]
  IC50: 3.7 nM

## N#Cc1ccc(C2NC(=O)N(c3cccc(C(F)(F)F)c3)C3=C2C(=O)NCC3)c(Br)c1 (centres unmarked) [Example 21, 3-Bromo-4-{2,5-dioxo-1-[3-(trifluoromethyl)phenyl]-1H,2H,3H,4H,5H,6H,7H,8H-pyrido[4,3-d]pyrimidin-4-yl}benzonitrile]
[1]
  IC50: 1.9 nM
[5]
  IC50: 1.9 nM

## CN1C(=O)N(c2cccc(C(F)(F)F)c2)C2=C(C(=O)NCC2)C1c1ccc(C#N)cc1Br (centres unmarked) [Example 22, 3-Bromo-4-{3-methyl-2,5-dioxo-1-[3-(trifluoromethyl)phenyl]-1H,2H,3H,4H,5H,6H,7H,8H-pyrido[4,3-d]pyrimidin-4-yl}benzonitrile]
[1]
  IC50: 2.5 nM
[5]
  IC50: < 1 nM

## N#Cc1ccc(C2NC(=O)N(c3cccc(C(F)(F)F)c3)C3=C2C(=O)NCC3)c(-c2cnco2)c1 (centres unmarked) [Example 23, 4-{2,5-Dioxo-1-[3-(trifluoromethyl)phenyl]-1H,2H,3H,4H,5H,6H,7H,8H-pyrido-[4,3-d]pyrimidin-4-yl}-3-(1,3-oxazol-5-yl)benzonitrile]
[1]
  IC50: 1.1 nM
[5]
  IC50: < 1 nM

## Cn1cc(-c2cc(C#N)ccc2C2NC(=O)N(c3cccc(C(F)(F)F)c3)C3=C2C(=O)NCC3)cn1 (centres unmarked) [Example 24, 4-{2,5-Dioxo-1-[3-(trifluoromethyl)phenyl]-1H,2H,3H,4H,5H,6H,7H,8H-pyrido-[4,3-d]pyrimidin-4-yl}-3-(1-methyl-1H-pyrazol-4-yl)benzonitrile]
[1]
  IC50: 1.4 nM
[5]
  IC50: < 1 nM

## N#Cc1ccc(C2NC(=O)N(c3cccc(C(F)(F)F)c3)C3=C2C(=O)NCC3)c(C(F)(F)F)c1 (centres unmarked) [Example 27, 4-{2,5-Dioxo-1-[3-(trifluoromethyl)phenyl]-1H,2H,3H,4H,5H,6H,7H,8H-pyrido-[4,3-d]pyrimidin-4-yl}-3-(trifluoromethyl)benzonitrile]
[1]
  IC50: < 1 nM
[5]
  IC50: < 1 nM

## CN1C(=O)N(c2cccc(C(F)(F)F)c2)C2=C(C(=O)NCC2)C1c1ccc(C#N)cc1C(F)(F)F (centres unmarked) [Example 28, 4-{3-Methyl-2,5-dioxo-1-[3-(trifluoromethyl)phenyl]-1H,2H,3H,4H,5H,6H,7H,8H-pyrido[4,3-d]pyrimidin-4-yl}-3-(trifluoromethyl)benzonitrile]
[1]
  IC50: 1.1 nM
[5]
  IC50: < 1 nM

## CN1C(=O)N(c2cccc(C(F)(F)F)c2)C2=C(C(=O)NCC2)C1c1ccc(C#N)cc1-c1ccncc1 (centres unmarked) [Example 33, 4-{3-Methyl-2,5-dioxo-1-[3-(trifluoromethyl)phenyl]-1H,2H,3H,4H,5H,6H,7H,8H-pyrido[4,3-d]pyrimidin-4-yl}-3-(pyridin-4-yl)benzonitrile]
[1]
  IC50: 5.3 nM
[5]
  IC50: < 1 nM

## CN1CCC2=C(C1=O)C(c1ccc(C#N)cc1CO)N(C)C(=O)N2c1cccc(C(F)(F)F)c1 (centres unmarked) [Example 38, 4-{3,6-Dimethyl-2,5-dioxo-1-[3-(trifluoromethyl)phenyl]-1H,2H,3H,4H,5H,6H,7H,8H-pyrido[4,3-d]pyrimidin-4-yl}-3-(hydroxymethyl)benzonitrile]
[1]
  IC50: 1.4 nM
[3]
  Papp A→B at 10 µM: 24 ×10⁻⁶ cm/s
  Papp B→A at 10 µM: 91 ×10⁻⁶ cm/s
[4]
  solubility at 24 h: 89 µg/mL (≈ 189 µM)
[5]
  IC50: < 1 nM

## CN1CCC2=C(C1=O)C(c1ccc(C#N)cc1-c1ccc(=O)n(C)n1)N(C)C(=O)N2c1cccc(C(F)(F)F)c1 (centres unmarked) [Example 41, 4-{3,6-Dimethyl-2,5-dioxo-1-[3-(trifluoromethyl)phenyl]-1H,2H,3H,4H,5H,6H,7H,8H-pyrido[4,3-d]pyrimidin-4-yl}-3-(1-methyl-6-oxo-1,6-dihydropyridazin-3-yl)-benzonitrile]
[1]
  IC50: 1 nM
[2]
  half-life at 1 μM: > 130 min
[3]
  Papp A→B at 10 µM: 6 ×10⁻⁶ cm/s
  Papp B→A at 10 µM: 91 ×10⁻⁶ cm/s
[4]
  solubility at 24 h: 93 µg/mL (≈ 170 µM)
